Experimental data reported in patent publication US20220396819A1, “METHOD FOR PRODUCING PEPTIDE HAVING PHYSIOLOGICAL ACTIVITY, AND PEPTIDE COMPRISING SHORT LINKER” (priority 2019, published 2022).
Positions of bridges follow the written chain, without caps; N, C: chain ends. No end group written: not given here.

What was measured:
Type in all cases: cell-based
[1] = test system: receptor tyrosine kinase (RTK); assay: RTK specificity, Proteome Profiler Human Phospho-RTK Array Kit, HEK293E cells; details: 200 ng/mL peptide or 100 ng/mL HGF, 10 minutes, FIG. 10
Protocol: The receptor tyrosine kinase (RTK) specificity of the HGF-PAS dimer peptide was evaluated using Proteome Profiler Human Phospho-RTK Array Kit (R&D Systems).
HEK293E cells confluent in a 10 cm cell culture dish were starved by culturing for 24 hours in D-MEM medium containing 0.5% FBS (Thermo Fisher Scientific) and penicillin-streptomycin (Nacalai Tesque). The starved HEK293E cells were stimulated with 200 ng/mL AET-PAS-aMD4dY-PEG11 for 10 minutes. As a positive control, 100 ng/mL HGF was similarly stimulated for 10 minutes. As a negative control, PBS was added and stimulated for 10 minutes (Mock group). After removing the medium and washing the cells once with PBS, the cells were lysed by adding 1 mL of Lysis buffer 17 containing a Protease inhibitor cocktail (Nacalai Tesque). The lysate solution was centrifuged at 14,000 G for 5 minutes to obtain the supernatant as a lysate.
The lysate was analyzed using Proteome Profiler Human Phospho-RTK Array Kit. Molecular Imager ChemiDoc XRS System (Bio-Rad) was used to detect chemiluminescence.

HuCCT1 cells [2] = assay: Cell proliferation promoting activity in HuCCT1 cell culture; details: HGF 35 ng/mL or peptide 40 ng/mL, 5 days, N=3, FIG. 12
Protocol: HGF has been reported to promote cell proliferation by activating Met (K. Ito, et al. Nat. Commun. 6, 6373, 2015). Therefore, HuCCT1 cell culture was used to evaluate whether the HGF-PAS dimer peptide had the same activity of promoting cell proliferation as HGF.
RPMI 1640 medium (Nacalai Tesque) containing 5% FBS was added to a 24-well cell culture plate, and HuCCT1 cells were seeded at 5,000 cell/well. HGF at 35 ng/mL or AET-PAS-aMD4dY-PEG11 at 40 ng/mL was added, and the cells were cultured at 37° C. and 5% CO2 for 5 days. The cells were detached with 0.25% Trypsin/EDTA (Thermo Fisher Scientific) and the number of cells was quantified with Countess Automated Cell Counter (Thermo Fisher Scientific) (N=3).

HuCCT1 cells [3] = assay: Cell migration activity, Transwell, HuCCT1 cells; details: 100 ng/mL HGF or 200 ng/mL peptide, 24 hours, FIGS. 13, 14
Protocol: HGF has been reported to promote cell migration ability by activating Met (K. Ito, et al. Nat. Commun. 6, 6373, 2015). Therefore, HuCCT1 cell culture was used to evaluate whether the HGF-PAS dimer peptide had the same activity of promoting cell migration as HGF.
To Transwell inserts for 24-well (pore size 3.0 m, Corning), 20,000 HuCCT1 cells suspended in low serum medium (RPMI 1640 medium with 0.5% FBS) were added. A low serum medium containing 100 ng/mL HGF or 200 ng/mL AET-PAS-aMD4dY-PEG11 was added to the lower layer. After culturing for 24 hours under the conditions of 37° C. and 5% CO2, the Transwell inserts were washed 3 times with PBS and cell-fixed and stained with methanol containing 0.5% Crystal Violet (Nacalai Tesque) for 10 minutes. Immobilized and stained Transwell inserts were washed with distilled water. The cells inside the inserts were removed with a scraper. The cells migrated to the outside of the inserts and stained were photographed in the bright field observation mode of a BZ-X microscope (Keyence).
The migration ability was calculated as (area of stained region)/(insert area) and as a relative value (Relative migration efficiency) to the value of the non-added group (Mock) (N=2).

HuCCT1 cells [4] = assay: Wound healing effect, scratch in HuCCT1 cell culture; details: 33 ng/mL HGF or 100 ng/mL peptide, N=4, FIG. 16
Protocol: HGF has been reported to promote cell wound healing ability by activating Met (K. Ito, et al. Nat. Commun. 6, 6373, 2015). Therefore, HuCCT1 cell culture was used to evaluate whether the HGF-PAS dimer peptide would promote wound healing as HGF.
To 96-well cell culture plates, 50,000 HuCCT1 cells suspended in RPMI 1640 medium with 10% FBS were added per well and incubated overnight under the conditions of 37° C. and 5% CO2. Cells in the center of the culture wells were scraped using a 1000 μL Thermo Scientific ART chip (Thermo Fisher Scientific) and washed with low serum medium (RPMI 1640 medium with 0.5% FBS). Low serum medium containing 33 ng/mL HGF or 100 ng/mL AET-PAS-aMD4dY-PEG11 was added, and the cells were cultured under the conditions of 37° C. and 5% CO2. BioStudio-T (Nikon Corporation) was used for cell observation, and cells were automatically photographed every hour. The rate of wound healing (μm/h) was calculated as ((wound width 1 hour after wound creation)−(wound width 7 hours after wound creation))/6 (N=4).

Substance | RTK phosphorylation (specificity) [1] | proliferation ability relative to the non-added group (Mock) (HuCCT1 cells [2]) | cell migration (HuCCT1 cells [3]) | improvement of the rate of wound healing (HuCCT1 cells [4])
AETCRQFNRRTHEVWNLDCGAAPAAPAPAAPAAPAPAAPAAPGCRQFNRRTHEVWNLDC (disulfide 4-19, 44-59; also: PEG11) [AET-PAS-aMD4dY-PEG11] | Met was specifically phosphorylated | about 2.5 times | promoted cell migration | about 1.6 times
HGF: recombinant human HGF (rhHGF, R&D Systems) | Met was specifically phosphorylated | about 2.5 times | proportion of the cells migrating to the lower part of the Transwell inserts increased | about 1.6 times
